Earlier results in patent US20190275102A1, “STERILE INJECTABLE COMPOSITION COMPRISING CARFILZOMIB” (CADILA HEALTHCARE LIMITED, priority 2018, published 2019).

Columns and labels:
[1] = tested on: kidney

Compound | solubility in acidic conditions (acidic conditions) | solubility in water (water) | single dose showing renal tolerance ([1]; animal trials, single-dose studies, i.v.) | dose with evidence of renal cellular toxicity ([1]; in vivo) [mg/kg/day] | renal function ([1]; in vivo)
CC(C)C[C@H](NC(=O)[C@H](CCc1ccccc1)NC(=O)CN1CCOCC1)C(=O)N[C@@H](Cc1ccccc1)C(=O)N[C@@H](CC(C)C)C(=O)[C@@]1(C)CO1 [Carfilzomib, (2S)—N—((S)-1-((S)-4-methyl-1-((R)-2-methytoxiran2-yl)-1-oxopentan-2-ylcarbamoyl)-2-phenylethyl)-2-((S)-2-(2-morpholinoacetamido)-4-phenylbutanamido)-4-methylpentanamide] | very slightly soluble | practically insoluble | – | – | –
sulfobutylether beta-cyclodextrin | – | – | up to 2000 mg/kg | ≥ 160 | not impaired
